In the NIST ThermoML archive (doi:10.1016/j.jct.2011.09.022):

Settings: Liquid, Closed cell (Static) method

CC#N [acetonitrile]
Settings	vapor or sublimation pressure [kPa]
278.72 K	4.443
278.88 K	4.539
278.98 K	4.513
279.81 K	4.732
280.27 K	4.859
281.91 K	5.339
283.17 K	5.637
283.56 K	5.838
283.81 K	5.916
284.56 K	6.102
285.7 K	6.473
286.17 K	6.59
286.61 K	6.754
288.72 K	7.498
288.8 K	7.559
288.83 K	7.594
289.39 K	7.802
290.09 K	8.032
290.6 K	8.302
291.36 K	8.598
292.48 K	9.163
293.21 K	9.408
293.92 K	9.82
294.4 K	10.03
295.33 K	10.43
295.94 K	10.77
296.44 K	11.02
297.48 K	11.6
298.3 K	12.05
298.67 K	12.17
299.42 K	12.61
301.19 K	13.61
302.14 K	14.18
304.16 K	15.57
305.01 K	16.1
306.04 K	16.96
306.9 K	17.53
307.95 K	18.22
309.92 K	19.85
310.71 K	20.49
311.79 K	21.38
311.88 K	21.55
312.81 K	22.5
313.77 K	23.42
314.79 K	24.17
315.71 K	25.1
315.79 K	25.15
316.63 K	26.11
317.72 K	27.21
318.66 K	28.27
319.69 K	29.39
320.67 K	30.52
321.65 K	31.73
322.54 K	32.95
322.56 K	32.94
322.64 K	33.19
323.64 K	34.49
324.59 K	35.65
325.58 K	37

C1CCOC1 [tetrahydrofuran]
Settings	vapor or sublimation pressure [kPa]
275.99 K	7.099
276.53 K	7.556
277.76 K	7.839
278.19 K	8.328
279.41 K	8.614
279.86 K	9.036
280.16 K	8.932
281.95 K	9.957
283.07 K	10.55
283.15 K	10.32
283.36 K	10.9
284.88 K	11.68
286.55 K	12.44
288.5 K	13.79
289 K	14
289.66 K	14.48
291.04 K	15.65
292.31 K	16.65
293.3 K	17.43
296.05 K	19.72
296.84 K	20.37
297.09 K	20.65
298.15 K	21.5
298.72 K	22.24
300.57 K	23.84
301.73 K	25.28
302.96 K	26.62
303.23 K	26.87
304.04 K	27.79
305.35 K	29.43
306.54 K	30.77
308.07 K	32.49
310.2 K	35.55
310.86 K	36.65
311.9 K	38.54
313.12 K	40.13
313.18 K	40.09
315.86 K	44.65
317.71 K	47.86
319.58 K	51.31
321.57 K	55.34
323.59 K	59.46
